As usually defined, the IC50 is the concentration at which inhibition is half-maximal. For orientation: Inhibition means the share of the control response that was lost under treatment.

Data set [1] has as its target T1, Cytochrome P450 11B2, mitochondrial (Homo sapiens, UniProt P19099).
T1 sequence (P19099 whole entry): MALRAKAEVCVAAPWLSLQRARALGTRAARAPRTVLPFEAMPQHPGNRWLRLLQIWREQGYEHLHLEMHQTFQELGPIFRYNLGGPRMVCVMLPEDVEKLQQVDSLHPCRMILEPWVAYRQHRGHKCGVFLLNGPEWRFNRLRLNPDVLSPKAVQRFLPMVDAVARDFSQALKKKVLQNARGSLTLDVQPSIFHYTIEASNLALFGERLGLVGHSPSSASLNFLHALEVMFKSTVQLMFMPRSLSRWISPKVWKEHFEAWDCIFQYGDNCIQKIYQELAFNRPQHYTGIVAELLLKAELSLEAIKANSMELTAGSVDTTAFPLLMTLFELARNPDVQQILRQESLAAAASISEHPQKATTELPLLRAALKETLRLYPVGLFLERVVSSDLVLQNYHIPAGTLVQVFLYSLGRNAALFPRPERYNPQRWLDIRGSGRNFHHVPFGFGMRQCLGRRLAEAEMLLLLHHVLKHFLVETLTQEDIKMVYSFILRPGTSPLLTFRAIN
Put plainly: In vitro inhibition of [14C]deoxycorticosterone binding to human cytochrome P450 11B2 expressed in hamster V79 MZh cells. In kind it is cell-based.

Data set [2] concerns the target T1, Cytochrome P450 11B2, mitochondrial. Put plainly: In vitro inhibition of human cytochrome P450 11B2 expressed in Schizosaccharomyces pombe with 500 nM deoxy-corticosterone.
Data set [3] deals with T2, Cytochrome P450 11B1, mitochondrial (Bos taurus, UniProt P15150).
T2 sequence (P15150 whole entry): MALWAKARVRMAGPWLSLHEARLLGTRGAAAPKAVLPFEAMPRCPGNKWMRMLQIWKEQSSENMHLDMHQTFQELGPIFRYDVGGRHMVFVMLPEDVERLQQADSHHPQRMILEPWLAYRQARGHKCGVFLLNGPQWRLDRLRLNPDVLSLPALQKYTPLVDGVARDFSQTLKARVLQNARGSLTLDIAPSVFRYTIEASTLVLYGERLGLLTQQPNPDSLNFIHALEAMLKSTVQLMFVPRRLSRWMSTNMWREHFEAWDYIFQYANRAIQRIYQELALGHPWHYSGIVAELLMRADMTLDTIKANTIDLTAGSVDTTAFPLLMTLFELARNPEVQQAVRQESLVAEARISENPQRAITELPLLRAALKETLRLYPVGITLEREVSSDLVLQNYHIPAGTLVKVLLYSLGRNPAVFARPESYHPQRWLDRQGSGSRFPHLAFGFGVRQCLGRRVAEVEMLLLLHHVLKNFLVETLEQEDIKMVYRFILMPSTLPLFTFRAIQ
Put plainly: In vitro inhibition against bovine cytochrome P450 11B with 200 uM corticosterone. The conditions noted are these: cyp11b.

Data set [4] addresses T3, Steroid 17-alpha-hydroxylase/17,20 lyase (Homo sapiens, UniProt P05093).
T3 sequence (P05093 whole entry): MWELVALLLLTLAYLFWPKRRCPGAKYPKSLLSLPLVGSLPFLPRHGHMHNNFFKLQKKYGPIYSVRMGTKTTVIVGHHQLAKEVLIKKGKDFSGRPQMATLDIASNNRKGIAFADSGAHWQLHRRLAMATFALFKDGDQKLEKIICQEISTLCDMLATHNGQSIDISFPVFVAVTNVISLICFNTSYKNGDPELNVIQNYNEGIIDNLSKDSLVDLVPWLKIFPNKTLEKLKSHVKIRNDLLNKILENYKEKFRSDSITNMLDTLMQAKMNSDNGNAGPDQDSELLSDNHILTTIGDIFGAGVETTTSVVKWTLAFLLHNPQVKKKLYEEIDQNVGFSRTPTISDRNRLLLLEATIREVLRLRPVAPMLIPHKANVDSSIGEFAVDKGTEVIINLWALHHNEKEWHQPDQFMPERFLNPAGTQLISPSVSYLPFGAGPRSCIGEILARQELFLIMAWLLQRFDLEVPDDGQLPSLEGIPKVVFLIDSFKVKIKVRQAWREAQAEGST
Put plainly: In vitro inhibition against human […] cytochrome P450 17 expressed in Escherichia coli with 2.5 uM progesterone.

The next data set addresses T4, Aromatase (Homo sapiens, UniProt P11511).
T4 sequence (P11511 whole entry): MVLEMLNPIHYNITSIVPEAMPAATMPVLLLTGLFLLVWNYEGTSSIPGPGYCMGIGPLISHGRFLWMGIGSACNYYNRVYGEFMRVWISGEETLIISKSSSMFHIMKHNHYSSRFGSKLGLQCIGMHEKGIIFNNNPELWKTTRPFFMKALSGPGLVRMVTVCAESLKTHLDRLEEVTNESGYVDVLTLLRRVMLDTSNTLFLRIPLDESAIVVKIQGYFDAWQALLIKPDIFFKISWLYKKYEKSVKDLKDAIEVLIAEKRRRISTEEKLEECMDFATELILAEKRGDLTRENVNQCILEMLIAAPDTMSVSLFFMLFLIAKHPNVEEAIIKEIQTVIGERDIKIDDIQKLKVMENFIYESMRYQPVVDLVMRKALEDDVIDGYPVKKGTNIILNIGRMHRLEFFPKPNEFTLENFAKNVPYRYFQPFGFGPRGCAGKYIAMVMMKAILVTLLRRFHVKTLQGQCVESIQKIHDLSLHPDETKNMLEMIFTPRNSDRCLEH

The target in data set [5] is T5, Cytochrome P450 11B1, mitochondrial (Homo sapiens, UniProt P15538).
T5 sequence (P15538 whole entry): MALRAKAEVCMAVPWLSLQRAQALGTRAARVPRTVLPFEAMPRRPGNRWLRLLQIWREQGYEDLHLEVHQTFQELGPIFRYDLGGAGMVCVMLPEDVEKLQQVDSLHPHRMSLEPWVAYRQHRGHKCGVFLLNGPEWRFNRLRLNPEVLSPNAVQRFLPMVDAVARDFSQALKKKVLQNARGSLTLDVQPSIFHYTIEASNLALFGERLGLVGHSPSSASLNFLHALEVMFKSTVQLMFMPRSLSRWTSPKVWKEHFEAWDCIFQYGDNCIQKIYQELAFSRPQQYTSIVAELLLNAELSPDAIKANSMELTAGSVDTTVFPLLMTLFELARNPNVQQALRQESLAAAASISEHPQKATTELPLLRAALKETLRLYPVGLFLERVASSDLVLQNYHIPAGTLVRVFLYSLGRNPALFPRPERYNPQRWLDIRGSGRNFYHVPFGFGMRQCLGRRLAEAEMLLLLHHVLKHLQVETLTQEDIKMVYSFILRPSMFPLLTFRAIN
Put plainly: In vitro inhibition of [14C]deoxycorticosterone binding to human cytochrome P450 11B1 expressed in hamster V79 MZh cells. In kind it is cell-based.

Description for Aromatase: In vitro inhibitory concentration against human placental cytochrome P450 19 with 2.5 uM testosterone

The compound `Brc1ccc2c(c1)CC/C2=C/c1c[nH]cn1` returned an IC50 in data set [1] of 10.3 nM. In addition, the Inhibition worked out at 76% in data set [2], 88% in data set [3] and 15% in data set [4].

For `N#Cc1ccc2c(c1)CC/C2=C/c1ncc[nH]1`, the IC50 worked out at 15 nM against Aromatase, 12.3 nM in data set [5] and 35.7 nM in data set [1]. Besides, the figures for the Inhibition in data set [2], in data set [3] and in data set [4] were 65%, 100% and 4%, respectively.

`Clc1ccc2c(c1)/C(=C/c1c[nH]cn1)CCC2`: the IC50 against Aromatase came to 120 nM; in data set [1], 47.3 nM. The Inhibition in data set [2] was 48%; in data set [3], 66%; in data set [4] it was 24%.

`Clc1ccc2c(c1)CC/C2=C/c1c[nH]cn1`: 39 nM corresponded to half-maximal inhibition at Aromatase (IC50). Besides, the Inhibition was 80% in data set [2], 87% in data set [3] and 26% in data set [4].

On to `N#Cc1ccc2c(c1)/C(=C\c1c[nH]cn1)CCC2`, for which the IC50 against Aromatase was found to be 810 nM. The Inhibition is 23% in data set [2], 97% in data set [3] and 3% in data set [4].

Compound `N#Cc1ccc2c(c1)/C(=C/c1cnc[nH]1)CCC2` displayed an IC50 on Aromatase of 970 nM. For the same compound, the Inhibition in data set [2] came out at 8%; in data set [3], 62%; in data set [4], 2%.

For the compound `Fc1ccc2c(c1)CC/C2=C/c1c[nH]cn1`, the Inhibition came out at 58% in data set [2], 64% in data set [3] and 11% in data set [4].

The compound `C(=C1\CCCc2ccccc21)/c1c[nH]cn1` came in with an IC50 on Aromatase of 190 nM. Moreover, the Inhibition in data set [2] stood at 82%; in data set [3], 95%; in data set [4] it was 13%.

Values taken from ChEMBL document CHEMBL1144350, “Synthesis and evaluation of imidazolylmethylenetetrahydronaphthalenes and imidazolylmethyleneindanes: potent inhibitors of aldosterone synthase” (J Med Chem, 2005).
